Experimental data from patent US20100279941A1, “CD36 MODULATION AND USES THEREOF” (priority 2009, published 2010).

Tests used:
Type in all cases: in vivo
[1] = system: CD36^+/+ and CD36^−/− mice; assay: Myocardial oxidative metabolism by μPET with [11C]-acetate; settings: in words
Protocol: (§1) Experimental model of IHD: Transient left coronary artery ligation in vivo. Mice were subjected to a transient LCAL surgery as described before, with minor modifications [Tarnayski et al., 2004]. Mice were injected i.p. with buprenorphine (0.05 mg/kg) and placed in an induction chamber with inhalation anesthesia comprised of 3% isoflurane mixed with 100% oxygen. Mice were intubated with a blunt ended 20-gauge catheter into the trachea via the mouth and mechanically ventilated at a tidal volume of 7 ml/kg at 130 respirations/min with a MiniVent™ mouse ventilator (model 845, Harvard Apparatus, Saint-Laurent, QC, Canada). Anesthesia was maintained with 1.5-2% isoflurane and the animals were kept warm using electrical heating pads during the surgical procedure. The chest was opened by a horizontal incision through the skin and muscle layers at the third intercostal space exposing the left side of the heart. […] Visual blanching distal to the coronary occlusion confirmed myocardial ischaemia. Lidocaine (6 mg/kg) was administered i.p. just following occlusion and prior to reperfusion. […]
Imaging Data Analysis. For [^11C]-acetate images, dynamic series of 25 frames each were sorted out whereas 27 frames were used for ^18FDG and ^18FTHA imaging, and were reconstructed and analyzed using multicompartmental analysis [Menard et al., 2009] or the Patlak method for FTHA [Patlak and Blasberg, 1985]. […]

[2] = system: circulating blood leukocytes; assay: Opsonized zymosan-stimulated luminol-enhanced whole blood chemiluminescence; settings: 48 hours reperfusion; CD36^+/+ mice; 10-week pretreatment; p<0.05
Protocol: as §1, with “reperfusion. After 30 minutes, the PE10 tubing was removed allowing reperfusion.” for “reperfusion.”
Whole blood chemiluminescence. […] The chemiluminescence signals were recorded using a computer-assisted luminometer (model 500; Chronolog Corp, Havertown, Pa., USA). Chemiluminescence intensities were measured as the peak amplitude in arbitrary units.

C57BL/6 mice [3] = assay: Cardiac troponin I (cTnI) in plasma, ELISA; settings: 48 hours post-ischemia; 2 weeks 289 nmol/kg; compared to vehicle
Protocol: (§2) C57BU6 mice were bred in house. Male mice, aged 23 (±1) weeks, were used for experiments. They were fed standard chow (#5075, Charles Rivers, Saint-Constant, Québec, Canada) and water ad libitum, and housed singly during treatment periods (2 weeks). Daily pharmacological treatments with 300 μg/kg (289 nmol/kg) of EP 80317 or 289 nmol/kg of CP-3(IV), 289 nmol/kg of CP-AP-4 or vehicle (0.9% NaCl) were done by subcutaneous (s.c.) injections.
Experimental model of IHD: Transient left coronary artery ligation in vivo. Mice were subjected to a transient LCAL surgery as described before, with minor modifications [Tarnayski et al., 2004]. Mice were injected i.p. with buprenorphine (0.05 mg/kg) and placed in an induction chamber with inhalation anesthesia comprised of 3% isoflurane mixed with 100% oxygen. Mice were intubated with a blunt ended 20-gauge catheter into the trachea via the mouth and mechanically ventilated at a tidal volume of 7 ml/kg at 130 respirations/min with a MiniVent™ mouse ventilator (model 845, Harvard Apparatus, Saint-Laurent, QC, Canada). Anesthesia was maintained with 1.5-2% isoflurane and the animals were kept warm using electrical heating pads during the surgical procedure. The chest was opened by a horizontal incision through the skin and muscle layers at the third intercostal space exposing the left side of the heart. […] Visual blanching distal to the coronary occlusion confirmed myocardial ischaemia. Lidocaine (6 mg/kg) was administered i.p. just following occlusion and prior to reperfusion. After 30 minutes, the PE10 tubing was removed allowing reperfusion. The lungs were reinflated and the chest wound closed layer by layer before extubation. […] Hearts were immediately frozen at −80° C. unless otherwise stated.
Cardiac troponin I (cTnI) concentrations in plasma. cTnI plasma levels were assayed using the High Sensitivity Mouse Cardiac Troponin-I ELISA Kit (Life Diagnostics, Inc., West Chester, Pa., Cat. No. 2010-1-HSP), according to the manufacturer's instructions.

C57BL/6 mice [4] = assay: Blood lactate after transient ischemia; settings: 6-hour reperfusion; 2 weeks 289 nmol/kg; P<0.05 compared to vehicle
Protocol: as §2
Experimental model of IHD: Transient left coronary artery ligation in vivo. Mice were subjected to a transient LCAL surgery as described before, with minor modifications [Tarnayski et al., 2004]. Mice were injected i.p. with buprenorphine (0.05 mg/kg) and placed in an induction chamber with inhalation anesthesia comprised of 3% isoflurane mixed with 100% oxygen. Mice were intubated with a blunt ended 20-gauge catheter into the trachea via the mouth and mechanically ventilated at a tidal volume of 7 ml/kg at 130 respirations/min with a MiniVent™ mouse ventilator (model 845, Harvard Apparatus, Saint-Laurent, QC, Canada). Anesthesia was maintained with 1.5-2% isoflurane and the animals were kept warm using electrical heating pads during the surgical procedure. The chest was opened by a horizontal incision through the skin and muscle layers at the third intercostal space exposing the left side of the heart. […] Visual blanching distal to the coronary occlusion confirmed myocardial ischaemia. Lidocaine (6 mg/kg) was administered i.p. just following occlusion and prior to reperfusion. After 30 minutes, the PE10 tubing was removed allowing reperfusion. The lungs were reinflated and the chest wound closed layer by layer before extubation. At 6 hours following reperfusion, mice were anesthetized (isoflurane), a blood sample withdrawn, and the heart arrested in diastole by an intravenous injection of 1 M KCl (0.5 mL). Hearts were immediately frozen at −80° C. unless otherwise stated.
Blood lactate. Blood lactate was determined using the Lactate Pro Analyser (FaCT Canada Consulting Ltd, Quesnel, BC, Canada), according to the manufacturer's instructions.

## HAIC-2MeDTrp-DLys-Trp-DPhe-Lys-NH2 [EP 80317]
[1]; CD36^+/+ mice pre-treated
  myocardial oxidative metabolism (k2): reduced
[1]; CD36^−/− mice
  myocardial oxidative metabolism (k2): unaffected
[2]
  reduction of circulating blood leukocyte priming and/or activation: 53%
C57BL/6 mice [3]
  reduction of cardiac troponin I (cTnI) levels in plasma: 60%
C57BL/6 mice [4]
  reduction of lactate concentration in blood: 34%
